In patent US20020012738A1, “Low calorie fat compositions” (priority 2000, published 2002):

Columns and labels:
porcine lipase [1] = target: T1, porcine lipase (Sus scrofa, UniProt P00591); assay: Hydrolysis by pancreatic lipase, aqueous emulsion assay; type: in vitro ADME; settings: 30° C., Bis-Tris propane buffer pH 7.8, HMPC, sodium cholate, 300 mg fat, unit assumed
T1 sequence (P00591 1-450): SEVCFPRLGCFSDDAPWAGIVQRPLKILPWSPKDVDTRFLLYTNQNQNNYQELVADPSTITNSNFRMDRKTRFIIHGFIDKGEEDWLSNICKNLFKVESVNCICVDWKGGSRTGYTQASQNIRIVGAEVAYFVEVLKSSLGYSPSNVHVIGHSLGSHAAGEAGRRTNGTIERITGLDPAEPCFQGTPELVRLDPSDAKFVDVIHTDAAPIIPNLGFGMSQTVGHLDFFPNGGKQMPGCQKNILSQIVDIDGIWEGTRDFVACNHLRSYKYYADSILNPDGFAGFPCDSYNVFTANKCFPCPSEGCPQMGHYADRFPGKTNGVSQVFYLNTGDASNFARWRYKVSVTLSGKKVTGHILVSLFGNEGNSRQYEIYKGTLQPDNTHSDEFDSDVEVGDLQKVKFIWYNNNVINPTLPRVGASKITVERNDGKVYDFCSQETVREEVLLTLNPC
Procedure: The digestibility of the wax esters derived from long chain and medium chain combinations (III and IV) of the present invention were done to compare with triolein and wax esters derived from long chain acids and long chain alcohols. The in-vitro assays were done using two emulsion systems as in the following procedure. A mixture of 300 mg of the fat/fat substitute, 4 ml of Bis-Tris propane buffer (10 mM, pH 7.8), 5 ml of hydroxyproylmethylcellulose (HMPC, […]), 0.5 ml of sodium cholate (0.1 M) were sonicated to disperse the fats and incubated at 30° C. Porcine lipase (0.5 ml, 20 mg/ml) was added. The analysis of the reaction was carried out as in the above organic solution assay.

porcine lipase [2] = target: T1, porcine lipase; assay: Hydrolysis by pancreatic lipase, organic solution assay; type: in vitro ADME; settings: 30° C., tamyl alcohol, Bis-Tris propane buffer pH 7.8, 300 mg fat, unit assumed
Procedure: The digestibility of the wax esters derived from long chain and medium chain combinations (III and IV) of the present invention were done to compare with triolein and wax esters derived from long chain acids and long chain alcohols. The in-vitro assays were done using two emulsion systems as in the following procedure. Each digest was carried out with 300 mg of the fat/fat substitute, 9 ml of the ^tamyl alcohol, 0.5 ml of Bis-Tris propane buffer (10 mM, pH 7.8) and 0.5 ml of porcine lipase (20 mg/mi). The reaction was incubated at 30° C. and the reaction stopped by adding 1 ml aliquots to 3 ml of isopropanol/heptane/sulfuric acid (40/10/1). The product was extracted with heptane and analyzed by GC and GC-MS at 360° C.

Hydrolysis by pancreatic lipase, Aqueous Emulsion Assay 24 hr (porcine lipase [1])	Hydrolysis by pancreatic lipase, Organic Solution Assay 24 hr (porcine lipase [2])	SMILES
4%	2.2%	CCCCCCCCCCCCCCCCCCCCOC(=O)CCCCC [Arachidyl caproate]
14.7%	7.6%	CCCCCCCCCCCCCCCCCCCCOC(=O)CCCCCCC [Arachidyl caprylate]
11.7%	5.4%	CCCCCCCCCCCCCCCCCCCC(=O)OCCCCCC [Hexyl arachidate]
93.3%	69.2%	CCCCCCCC/C=C\CCCCCCCC(=O)OCC(COC(=O)CCCCCCC/C=C\CCCCCCCC)OC(=O)CCCCCCC/C=C\CCCCCCCC [Triolein, reference compound]
